“Also recorded” adds a separate entry of the source.

In test [1] the test system is Hedgehog signaling pathway (GLI1, GLI2, PTCH1 expression) in DAOY cells. Put plainly: Western blot / qPCR of Hedgehog target genes in SAG-stimulated DAOY medulloblastoma cells. The format is cell-based, human. Conditions: for HH signaling / GLI target gene activation: SAG stimulated DAOY cells, Harmine 10 or 25 μM, Cpd P 1 or 5 μM; for GLI1 protein expression: Western blot. As to the method:
(§1) DAOY cells (ATCC) were grown in MEM media (PAA Laboratories, Germany) supplemented with 10% fetal bovine serum (FBS) (PAA Laboratories, Germany), penicillin (62.5 μg/ml) and streptomycin ([…]) at 37° C. in an atmosphere containing 5% CO2. BSZ2 cells (So et al., 2006) were grown in 154-CF media (Life Technologies, UK) supplemented with 2% heat inactivated (56° C. for 30 minutes) and chelexed fetal bovine serum (FBS) (PAA Laboratories, Germany) (FBS was chelexed by adding to 50 mL FBS 10 g Chelex 100 (Bio-Rad Laboratories GmbH, Germany) followed by stirring for 60 min at RT; chelexed FBS was sterile filtered prior to use), penicillin (62.5 μg/ml) and streptomycin ([…]) at 37° C. in an atmosphere containing 5% CO2. Panc-1 and A673 cells (ATCC) were grown in DMEM media (PAA Laboratories, Germany) supplemented with 10% fetal bovine serum (FBS) (PAA Laboratories, Germany), penicillin (62.5 μg/ml) and streptomycin ([…]) at 37° C. in an atmosphere containing 5% CO2. For 3-dimensional (3D) cultures, 5×10^3 cells were seeded in 12-well plates in 0.4% select agar on top of 0.5% bottom select agar (Life Technologies, Germany) according to standard protocols of anchorage independent growth assays (Eberl et al., 2012). 3D cultures were grown for 4-6 weeks at 37° C. in a humidified atmosphere containing 5% CO2. Colony formation was documented on a stereomicroscope with Cell^D Image capture system (Olympus) and quantified using Colony Counter Software (Microtec Nition, Japan). SAG (smoothened agonist, N-Methyl-N′-(3-pyridinylbenzyl)-N′-(3-chlorobenzo[b]thiophene-2-carbonyl)-1,4-diaminocyclohexane) (Axxora LCC), Harmine (Fisher Scientific), GDC-0449 (LC Laboratories), GANT61 (Merck Chemicals Ltd.) and 4SC Compound P (4SC Discovery GmbH, Germany) were dissolved in DMSO. The final DMSO concentration in all wild-type DAOY samples was 0.2%, in all other cell line experiments including DAOY shSUFU cells 0.1%.
Total RNA was isolated using TRI-reagent (Molecular Research Center Inc.) followed by LiCl purification step. For this purpose, total RNA was dissolved in 100 mM Hepes pH 7.4/6M Urea and selectively precipitated by adding LiCl to a final concentration of 3M and incubating for 2 h at −20° C. Precipitated and purified RNA was used for cDNA synthesis using Superscript II reverse transcriptase (Life Technologies, Germany) according to the manufacturer's instructions. qPCR was done on a Rotorgene3000 (Qiagen, Germany) using iQ Sybr Green Supermix reagent (Bio-Rad Laboratories, UK). For qPCR analysis the following primer pairs (Microsynth AG, Switzerland) were used:
For Western blot analysis, cells were lysed in Laemmli buffer supplemented with PhosStop (Roche, Germany) and cOmplete EDTA-free Protease Inhibitor Cocktail (Roche, Germany). Proteins were visualized with horseradish peroxidase-conjugated secondary antibodies in combination with enhanced chemiluminescence detection system (GE Health Care, USA).
To address the effect of selected gene perturbations on canonical endogenous Hedgehog signaling in a human cancer cell line, the human medulloblastoma cell line (DAOY, ATCC ident. HTB-186) showing full responsiveness to Hedgehog activation by Smoothened agonist (SAG) as evidenced by activation of the direct Hedgehog target gene GLI1, a reliable and robust indicator of Hedgehog signaling pathway activity (FIG. 1) (Chen et al., 2002).
SAG stimulated DAOY cells were treated with Harmine (7-MeO-1-Me-9H-pyrido[3,4-b]-indole) (dissolved at room temperature as 25 mM stock solution in DMSO and used at final concentration of 10 μM or 25 μM), a naturally occurring DYRK1 inhibitor, as well as with Compound P (Cpd P, dissolved at room temperature in DMSO as 20 mM stock solution and used at final concentration of 1 μM or 5 μM, respectively), a small molecule inhibitor of DYRK1, which is structurally unrelated to Harmine.

The next test deals with T1, DYRK1A (Homo sapiens, UniProt Q13627).
T1 construct: full-; Insect; N-terminal; length; GST; GST (N); purchased Reaction Biology Corp; host or cells: Insect
Put plainly: In vitro DYRK1A kinase assay (33P-ATP, DYRKtide substrate, Reaction Biology Corp.). The format is biochemical. Conditions: 10 μM ATP, 20 μM DYRKtide, 0.3 nM enzyme. The protocol: (§2) The assay was carried out by Reaction Biology Corp., Malverne, Pa., USA according to specifications by Reaction Biology Corp., as detailed herein below and further described in Anastassiadis et al., Nature Biotechnology, 29 (2011) 1039-1045.
(§3) DYRK1A: The substrate DYRKtide (synthetic peptide […]) (SEQ ID NO: 5) was dissolved in freshly prepared Base Reaction Buffer (20 mM Hepes (pH 7.5), 10 mM MgCl2, 1 mM EGTA, 0.02% Brij35, 0.02 mg/ml BSA, 0.1 mM Na3VO4, 2 mM DTT, 1% DMSO) at a concentration of 20 μM. DYRK1A was added to the substrate solution in a concentration of 0.3 nM and gently mixed. Compound dilution series in DMSO were added to the reaction, followed 20 min later by addition of a mixture of ATP and ^33P ATP (0.01 μCi/μl final) to a final concentration of 10 μM. Reactions proceeded at 25° C. for 120 min, followed by spotting onto P81 ion exchange filter paper. Unbound phosphate was removed by extensive washing of the filters in 0.75% phosphoric acid. […] IC50 values and curve fits were obtained using Prism (Graph Pad Software).
(§4) DYRK1A and DYRK1B used in the above assays are further described in the below table: […]

The next test has as its target T2, DYRK1B (Homo sapiens, UniProt Q9Y463).
T2 construct: full-; Insect; N-terminal; length; GST; GST (N); purchased Reaction Biology Corp; host or cells: Insect
In words: In vitro DYRK1B kinase assay (33P-ATP, DYRKtide substrate, Reaction Biology Corp.). The format is biochemical. The note with it: 10 μM ATP, 20 μM DYRKtide. As to the method: as §2, §3
The assay for DYRK1B was carried out as described above for DYRK1A, with the exception that instead of DYRK1A, DYRK1B was added to the substrate solution and gently mixed.
as §4

In test [2] the test system is GLI1 and PTCH1 expression in DAOY shSUFU cells. In words: Western blot / qPCR in SUFU knockdown (shSUFU) DAOY cells, SMO-independent GLI activation. The class given is cell-based, human. Conditions: for PTCH1 mRNA expression: qPCR. As to the method:
as §1
In the examples of the present invention, RNAi knockdown experiments were facilitated by lentiviral RNAi production and transductions, which were carried out as described in Kasper et al, 2007, which is incorporated herein by reference (Kasper et al., 2007). The following shRNA constructs (Sigma Aldrich mission TRC library) were used and the following abbreviations are used herein: shRNA DYRK1A (TRCN0000000526), shRNA DYRK1B-1 (TRCN0000002139), shRNA DYRK1B-2 (TRCN0000355722), shSUFU (TRCN0000019466) and control scrambled shRNA (SHC002). […] Transduced cells were selected for puromycin resistance prior to further analysis.
Total RNA was isolated using TRI-reagent (Molecular Research Center Inc.) followed by LiCl purification step. […]
Background: In western blotting, separated proteins are transferred to a membrane and probed.

The subject of test [3] is tumor-initiating PANC1 pancreatic cancer cells. In words: Anchorage-independent 3D culture clonal growth (tumorsphere) assay, PANC1. Conditions: PANC1, anchorage-independent 3D cultures. The class given is cell-based, human. The protocol:
(§5) DAOY cells (ATCC) were grown in MEM media (PAA Laboratories, Germany) supplemented with 10% fetal bovine serum (FBS) (PAA Laboratories, Germany), penicillin (62.5 μg/ml) and streptomycin ([…]) at 37° C. in an atmosphere containing 5% CO2. BSZ2 cells (So et al., 2006) were grown in 154-CF media (Life Technologies, UK) supplemented with 2% heat inactivated (56° C. for 30 minutes) and chelexed fetal bovine serum (FBS) (PAA Laboratories, Germany) (FBS was chelexed by adding to 50 mL FBS 10 g Chelex 100 (Bio-Rad Laboratories GmbH, Germany) followed by stirring for 60 min at RT; chelexed FBS was sterile filtered prior to use), penicillin (62.5 μg/ml) and streptomycin ([…]) at 37° C. in an atmosphere containing 5% CO2. Panc-1 and A673 cells (ATCC) were grown in DMEM media (PAA Laboratories, Germany) supplemented with 10% fetal bovine serum (FBS) (PAA Laboratories, Germany), penicillin (62.5 μg/ml) and streptomycin ([…]) at 37° C. in an atmosphere containing 5% CO2. […] Colony formation was documented on a stereomicroscope with Cell^D Image capture system (Olympus) and quantified using Colony Counter Software (Microtec Nition, Japan). […]

Test [4] has as its system GLI1 protein expression in A673 cells. Put plainly: Western blot of Ewing sarcoma cell line A673. The format is cell-based, human. Conditions: for GLI1 protein expression: GDC-0449 0.5 μM. As to the method:
as §1, with “0.1%. […]” for “0.1%.”
(§6) The function of DYRK1 isoforms in SMO-independent/GLI-dependent pancreatic cancer and Ewing's sarcoma (EWS) cell lines PANC1 and A673, respectively, was analyzed. […]

Test [5] relates to tumor-initiating L3.6pl pancreatic cancer cells. In words: Anchorage-independent 3D culture clonal growth (tumorsphere) assay, L3.6pl. The class given is cell-based. The note with it: anchorage-independent 3D cultures.
Test [6] concerns GLI1 protein expression in PANC1 cells. Put plainly: Western blot of PANC1 pancreatic cancer cells. Conditions: for GLI1 protein expression: GDC-0449 0.5 μM. The format is cell-based, human. The protocol: as §1, with “0.1%. […]” for “0.1%.”
as §6

In test [7] the test system is GLI1 expression in BSZ2 cells. Put plainly: Western blot of GLI1 in Ptch-/- BCC cells (BSZ2). The format is cell-based. Conditions: mouse Ptch-/- BCC cells (BSZ2). As to the method:
as §5

Where [8] appears, read: DAOY cells, 100 nM SAG 48 hours, starving conditions.

T2 sequence (Q9Y463 whole entry): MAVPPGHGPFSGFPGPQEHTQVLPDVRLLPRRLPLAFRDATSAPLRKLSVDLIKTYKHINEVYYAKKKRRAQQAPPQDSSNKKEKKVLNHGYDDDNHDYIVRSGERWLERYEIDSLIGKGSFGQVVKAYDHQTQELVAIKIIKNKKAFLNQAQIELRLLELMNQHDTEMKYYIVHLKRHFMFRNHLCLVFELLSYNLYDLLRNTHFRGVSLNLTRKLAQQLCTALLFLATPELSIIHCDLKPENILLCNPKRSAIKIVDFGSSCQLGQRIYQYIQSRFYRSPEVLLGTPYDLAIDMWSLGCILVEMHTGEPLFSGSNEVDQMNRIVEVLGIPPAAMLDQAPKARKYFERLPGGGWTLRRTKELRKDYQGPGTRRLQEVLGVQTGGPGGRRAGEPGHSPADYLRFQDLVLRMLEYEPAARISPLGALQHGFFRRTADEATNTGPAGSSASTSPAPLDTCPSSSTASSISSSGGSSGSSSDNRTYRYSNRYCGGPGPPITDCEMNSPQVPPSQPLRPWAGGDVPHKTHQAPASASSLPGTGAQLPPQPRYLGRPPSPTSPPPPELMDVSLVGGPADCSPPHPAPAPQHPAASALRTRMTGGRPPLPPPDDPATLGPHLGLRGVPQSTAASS

In general, IC50 refers to the concentration needed to halve the response being measured. Lower therefore signals inhibition by little substance. As to `FC(F)(F)c1ccc2[nH]c(Nc3ncccn3)nc2c1` [Compound P, N-(pyrimidin-2-yl)-5-(trifluoromethyl)-1H-benzo[d]imidazol-2-amine], in test [1], the “HH signaling / GLI target gene activation” value is “significant reduction”. Besides, in test [1] (setting [8]), the GLI1 protein expression entry is recorded as “significantly inhibited”. Further, the 50% inhibitory concentration (IC50) came to 0.0222 µM at DYRK1A and 0.0548 µM on DYRK1B.
As to `CN(C)c1ccccc1CN1CCCN(Cc2ccccc2N(C)C)C1c1ccncc1` [GANT61, 2,2′-[[Dihydro-2-(4-pyridinyl)-1,3(2H,4H)-pyrimidinediyl]bis-(methylene)]bis[N,N-dimethylbenzenamine)], in [2], the “GLI1 mRNA expression” value is given as “down-regulation” and the “PTCH1 mRNA expression” value is “down-regulation; also recorded: sensitive”.
As for `CS(=O)(=O)c1ccc(C(=O)Nc2ccc(Cl)c(-c3ccccn3)c2)c(Cl)c1` [GDC-0449, 2-chloro-N-(4-chloro-3-(pyridin-2-yl)phenyl)-4-(methylsulfonyl)benzamide], the GLI1 protein expression result in test [1] (setting [8]) is on record as “efficiently blocked”; in test [4], “inability”; in test [6], “resistance; also recorded: inability”. For the same compound, the “clonal growth (sphere numbers)” value in test [3] was “not and did not affect”; in test [5], “not”. Besides, the “GLI1 expression (protein)” value in [2] (Western blot) was “unaffected; also recorded: resistant”. Further, the “PTCH1 mRNA expression” value in test [2] is “resistant”.
Turning to `COc1ccc2c(c1)[nH]c1c(C)nccc12` [Harmine, 7-MeO-1-Me-9H-pyrido[3,4-b]-indole], the “HH signaling / GLI target gene activation” value in [1] was “significant reduction”. Moreover, the GLI1 protein expression entry in [1] (setting [8]) is reported as “significantly inhibited”; in test [4] it was “reduces; also recorded: reduced levels of GLI1”; in test [6], “reduces; also recorded: reduced levels of GLI1”. The “PTCH1 mRNA expression” value in test [1] (qPCR, DAOY cells, 100 nM SAG 48 hours, starving conditions) is listed as “significantly inhibited”. The “clonal growth (sphere numbers)” value in test [3] is on record as “reduces sphere numbers; also recorded: reduced clonogenic growth”; in test [5] it was “reduces sphere numbers”. For the same compound, in [4], the “Beta Catenin expression” value was “essentially unaffected”. Further, the “Beta Catenin and STAT3 expression” value in [6] is recorded as “essentially unaffected”. Further, the GLI1 expression result in test [7] was “reduced GLI1 expression”.
